Reference: ChEMBL document CHEMBL1130659, “Macrolide biosynthesis: a single cytochrome P450, PicK, is responsible for the hydroxylations that generate methymycin, neomethymycin, and picromycin in Streptomyces venezuelae” (Bioorg Med Chem Lett, 1998)

Columns and labels:
Assay type in all cases: ADME
[1] = Michaelis behavior of the enzyme (PicK/6-His)
[2] = Catalytic constant expressed as Kinetic behavior of enzyme (PicK/6-His)
[3] = Kinetic behavior of the enzyme (PicK/6-His) was evaluated
[4] = Ratio of kcat to Km was evaluated.

Row | SMILES | Km [1] [µM] | k cat [2] [s⁻¹] | Km [3] [µM] | kcat/Km [4] [M⁻¹ s⁻¹]
1 | CC[C@H]1OC(=O)[C@H](C)C(=O)[C@H](C)[C@@H](O[C@@H]2O[C@H](C)C[C@H](N(C)C)[C@H]2O)[C@@H](C)C[C@@H](C)C(=O)/C=C/[C@H]1C | 88 | 2 | 440 | 23000
2 | CC[C@H]1OC(=O)[C@H](C)[C@@H](O[C@@H]2O[C@H](C)C[C@H](N(C)C)[C@H]2O)[C@@H](C)C[C@@H](C)C(=O)/C=C/[C@H]1C | 130 | 1.1 | 2200 | 8000
